In patent publication US7511144B2, “Reverse hydroxamic acid derivatives” (Kaken Pharmaceutical Co., Ltd., priority 2001, dated 2009) one finds IC50 data, which are given here for 14 compounds.

Assay type in all cases: biochemical
Test [1] concerns the target T1, TACE (Homo sapiens, UniProt P78536).
T1 construct: made in house; host or cells: mammalian cells or insect cells
Description: TACE inhibition experiment (in vitro).

Test [2] concerns the target T2, Human MMP1 (Homo sapiens, UniProt P03956).
T2 construct: purchased Calbiochem 444208
T2 sequence (P03956 100-469): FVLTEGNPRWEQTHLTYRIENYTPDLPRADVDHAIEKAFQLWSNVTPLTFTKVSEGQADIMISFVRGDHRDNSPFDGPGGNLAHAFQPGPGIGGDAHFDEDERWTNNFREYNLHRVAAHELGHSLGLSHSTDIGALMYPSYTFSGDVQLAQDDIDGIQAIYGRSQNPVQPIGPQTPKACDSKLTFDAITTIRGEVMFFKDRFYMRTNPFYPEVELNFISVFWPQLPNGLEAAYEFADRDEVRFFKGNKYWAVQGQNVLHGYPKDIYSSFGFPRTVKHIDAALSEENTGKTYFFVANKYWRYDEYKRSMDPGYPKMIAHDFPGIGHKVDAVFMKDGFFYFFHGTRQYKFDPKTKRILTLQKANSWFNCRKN
In words: MMP1 inhibition experiment. The conditions noted are these: read-out: IC50 value MMP-1.
Description: (§1) The methods of inhibition experiments carried out for various MMPs are described below.
This enzyme solution in amount of 10 μL was diluted to 90 μL with the assay buffer A, which was added to 90 μL of 20 μM fluorescent substrate (Dnp-Pro-Cha(β-cyclohexylalanyl)-Gly-Cys(Me)-His-Ala-Lys(Nma)-NH2) prepared in the assay buffer B, followed by reaction for 5 hours at 37° C.

For test [3], the target named is T3, Human MMP13 (Homo sapiens, UniProt P45452).
T3 construct: purchased Chemicon CC068
In words: MMP13 inhibition experiment. The settings on record: concentration required for 50% inhibition of enzyme activity; read-out: IC50 value MMP-13.
Description: Human MMP13 (Chemicon #CC068) in amount of 90 μL (200 ng) was activated by mixing with 10 μL of 10 mM APMA, followed by reaction for 1 hour at 37° C. This enzyme solution in amount of 0.6 μL was diluted to 90 μL with the assay buffer A, which was added to 90 μL of 20 μM fluorescent substrate (Dnp-Pro-Cha-Gly-Cys(Me)-His-Ala-Lys(Nma)-NH2) prepared in the assay buffer B, followed by reaction for 4 hours at 37° C.

Test [4] addresses T4, Human MMP14 (Homo sapiens, UniProt P50281).
T4 construct: purchased Biogenesis or Calbiochem 5980-1461 or 475935
Description: MMP14 inhibition experiment. The settings on record: concentration required for 50% inhibition of enzyme activity; read-out: IC50 value MMP-14. The method in brief:
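Fluorescence assay: substrate Dnp-Pro-Cha-Gly-Cys(Me)-His-Ala-Lys(Nma)-NH2 (20 μM before equal-volume mixing) incubated at 37° C for 5 hours with 4 ng human MMP14.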

Test [5] has as its target T5, Human MMP17 (Homo sapiens, UniProt Q9ULZ9).
T5 construct: purchased Calbiochem 475940
T5 sequence (Q9ULZ9 126-300 limits assumed): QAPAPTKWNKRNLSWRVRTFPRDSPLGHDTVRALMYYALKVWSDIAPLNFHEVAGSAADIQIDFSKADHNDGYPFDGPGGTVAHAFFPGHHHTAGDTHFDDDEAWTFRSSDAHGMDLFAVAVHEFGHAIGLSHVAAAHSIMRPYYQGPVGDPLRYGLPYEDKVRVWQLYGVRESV
In words: MMP17 inhibition test. The conditions noted are these: concentration required for 50% inhibition of enzyme activity; read-out: IC50 value MMP-17.

In test [6] the target is T6, Human MMP2 (Homo sapiens, UniProt P08253).
T6 construct: purchased Calbiochem 444213
T6 sequence (P08253 110-660): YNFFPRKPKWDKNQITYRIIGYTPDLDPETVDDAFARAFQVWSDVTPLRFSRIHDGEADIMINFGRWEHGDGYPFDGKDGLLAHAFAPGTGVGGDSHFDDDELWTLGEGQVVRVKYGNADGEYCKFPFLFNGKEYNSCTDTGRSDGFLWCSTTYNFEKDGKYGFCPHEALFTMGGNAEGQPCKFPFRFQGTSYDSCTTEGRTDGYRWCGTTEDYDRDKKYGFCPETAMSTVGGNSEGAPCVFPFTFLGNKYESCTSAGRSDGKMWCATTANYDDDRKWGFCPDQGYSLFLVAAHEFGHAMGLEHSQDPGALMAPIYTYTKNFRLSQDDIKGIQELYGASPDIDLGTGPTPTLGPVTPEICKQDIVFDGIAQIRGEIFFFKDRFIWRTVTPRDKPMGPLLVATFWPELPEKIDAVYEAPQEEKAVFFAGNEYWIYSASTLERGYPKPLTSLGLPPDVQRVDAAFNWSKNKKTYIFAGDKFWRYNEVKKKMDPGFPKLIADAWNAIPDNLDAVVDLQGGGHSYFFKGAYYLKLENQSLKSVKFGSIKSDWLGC
Description: MMP2 inhibition experiment. The settings on record: concentration required for 50% inhibition of enzyme activity; read-out: IC50 value MMP-2.
Description: This enzyme solution in amount of 10 μL was diluted to 90 μL with the assay buffer A, which was added to 90 μL of 20 μM fluorescent substrate (MOCAc((7-methoxycoumarin-4-yl)acetyl)-Pro-Leu-Gly-Leu-A2pr(Dnp)-Ala-Arg-NH2, Peptide Institute, Inc., #3163-v) prepared in the assay buffer B, followed by reaction for 5 hours at 37° C.

The target of test [7] is T7, Human MMP8 (Homo sapiens, UniProt P22894).
T7 construct: purchased Calbiochem 444229
In words: MMP8 inhibition experiment. The conditions noted are these: concentration required for 50% inhibition of enzyme activity; read-out: IC50 value MMP-8. The method in brief: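 Human MMP8 activated with APMA for 1 h at 37° C, then incubated with fluorogenic peptide MOCAc-Pro-Leu-Gly-Leu-A2pr(Dnp)-Ala-Arg-NH2 (20 μM stock) for 5 hours at 37° C. Fluorescent substrate cleavage serves as read-out.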

Test [8] concerns the target T8, Human MMP3 (Homo sapiens, UniProt P08254).
T8 construct: purchased Calbiochem 444217
Description: MMP3 inhibition experiment. The settings on record: concentration required for 50% inhibition of enzyme activity; read-out: IC50 value MMP-3. The method in brief: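 Fluorescence-quenched substrate NFF-3 (MOCAc/Dnp peptide, 20 μM as prepared) cleaved by 5 ng human MMP3 over 5 hours at 37° C, with inhibition measured from substrate fluorescence.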

Test [9] deals with T9, Human MMP9 (Homo sapiens, UniProt P14780).
T9 construct: purchased Calbiochem 444231
Description: MMP9 inhibition experiment. The conditions noted are these: read-out: IC50 value MMP-9.
Description: as §1
This enzyme solution in amount of 1 μL was diluted to 90 μL with the assay buffer A, which was added to 90 μL of 20 μM fluorescent substrate (Dnp-Pro-Cha-Gly-Cys(Me)-His-Ala-Lys(Nma)-NH2) prepared in the assay buffer B, followed by reaction for 4 hours at 37° C.

T1 sequence (P78536 215-824): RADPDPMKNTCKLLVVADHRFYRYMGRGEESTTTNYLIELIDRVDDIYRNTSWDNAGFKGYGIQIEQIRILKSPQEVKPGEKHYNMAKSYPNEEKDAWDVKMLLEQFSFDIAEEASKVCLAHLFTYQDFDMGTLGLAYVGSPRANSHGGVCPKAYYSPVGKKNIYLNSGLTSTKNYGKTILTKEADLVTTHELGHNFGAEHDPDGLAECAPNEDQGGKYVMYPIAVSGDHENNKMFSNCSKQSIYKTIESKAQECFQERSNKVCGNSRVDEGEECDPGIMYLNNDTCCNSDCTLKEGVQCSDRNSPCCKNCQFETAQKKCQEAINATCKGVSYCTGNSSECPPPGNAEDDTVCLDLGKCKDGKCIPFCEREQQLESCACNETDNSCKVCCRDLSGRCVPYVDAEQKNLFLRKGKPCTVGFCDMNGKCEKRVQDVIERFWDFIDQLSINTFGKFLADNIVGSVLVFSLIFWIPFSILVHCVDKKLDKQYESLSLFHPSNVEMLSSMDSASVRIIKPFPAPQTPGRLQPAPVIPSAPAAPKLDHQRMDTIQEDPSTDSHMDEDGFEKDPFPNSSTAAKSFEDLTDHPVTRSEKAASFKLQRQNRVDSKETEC
T9 sequence (P14780 107-707 limits assumed): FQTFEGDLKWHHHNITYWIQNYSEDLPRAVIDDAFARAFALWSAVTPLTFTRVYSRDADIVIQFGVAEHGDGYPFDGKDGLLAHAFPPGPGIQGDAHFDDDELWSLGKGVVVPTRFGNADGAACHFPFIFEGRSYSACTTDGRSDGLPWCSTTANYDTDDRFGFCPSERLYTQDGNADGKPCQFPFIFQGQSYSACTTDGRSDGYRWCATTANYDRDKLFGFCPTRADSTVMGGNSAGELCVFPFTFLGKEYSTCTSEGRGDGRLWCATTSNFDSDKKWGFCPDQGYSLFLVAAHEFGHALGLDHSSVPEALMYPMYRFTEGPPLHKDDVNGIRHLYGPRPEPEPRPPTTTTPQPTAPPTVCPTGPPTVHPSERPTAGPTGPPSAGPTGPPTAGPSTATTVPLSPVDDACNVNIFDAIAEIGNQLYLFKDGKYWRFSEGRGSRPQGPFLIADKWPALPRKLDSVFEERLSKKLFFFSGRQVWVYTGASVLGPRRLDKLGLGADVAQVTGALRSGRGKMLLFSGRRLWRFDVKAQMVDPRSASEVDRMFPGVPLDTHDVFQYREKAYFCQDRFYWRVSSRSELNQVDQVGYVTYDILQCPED
T8 sequence (P08254 100-272 limits assumed): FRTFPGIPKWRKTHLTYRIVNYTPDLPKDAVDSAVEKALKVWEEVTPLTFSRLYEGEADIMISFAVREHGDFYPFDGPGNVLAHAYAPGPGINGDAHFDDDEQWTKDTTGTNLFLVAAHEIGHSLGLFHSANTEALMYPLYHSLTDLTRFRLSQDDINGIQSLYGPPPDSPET
T7 sequence (P22894 101-467): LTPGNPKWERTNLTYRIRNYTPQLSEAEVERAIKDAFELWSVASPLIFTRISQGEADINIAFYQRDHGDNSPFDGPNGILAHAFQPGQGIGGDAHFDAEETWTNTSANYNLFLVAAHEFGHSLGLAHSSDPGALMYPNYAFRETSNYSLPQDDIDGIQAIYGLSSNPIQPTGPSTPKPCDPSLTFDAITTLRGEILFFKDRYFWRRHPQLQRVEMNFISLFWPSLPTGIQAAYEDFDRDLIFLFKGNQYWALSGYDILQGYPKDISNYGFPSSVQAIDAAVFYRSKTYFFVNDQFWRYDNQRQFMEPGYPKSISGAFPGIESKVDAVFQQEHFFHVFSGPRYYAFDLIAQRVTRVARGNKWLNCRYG

Turning to `Cc1ccc(CCC(CS(=O)(=O)c2ccc(OCc3cc(C)nc4ccccc34)cc2)N(O)C=O)cc1` (stereo not drawn) [Example I-36], the IC50 (as a rule, the concentration that gives 50% inhibition) in test [1] came out at 0.17 µM; in test [2] it was 70 µM; in test [3], 20 µM; in test [4], 37 µM; in test [5], 20 µM; in [6] it was 6 µM. The half-inhibitory concentration (IC50) in test [7] is 68 µM; in test [8] it was 9.7 µM; in test [9] it was 43 µM.

For `Cc1cccc(C(CS(=O)(=O)c2ccc(OCc3cc(C)nc4ccccc34)cc2)N(O)C=O)c1` (stereo not drawn) [Example I-22], the IC50 in [1] is 0.0042 µM; in [2], 60 µM; in test [3], 21 µM; in test [4], 42 µM; in test [5], 3.5 µM; in test [6] it was 40 µM. In addition, the IC50 in [7] came to 59.5 µM; in test [8], 7.3 µM; in [9] it was 53 µM.

As for `CCC(CC)CN1CCC(CC(CS(=O)(=O)c2ccc(OCc3cc(C)nc4ccccc34)cc2)N(O)C=O)CC1` (stereo not drawn) [Example I-71], the IC50 in [1] is 0.02 µM; in test [2], > 100 µM; in [3], 1.4 µM; in test [4], 70 µM; in [5], 0.06 µM; in test [6], 0.78 µM. In addition, the IC50 in test [7] was 10 µM; in test [8] it was 0.4 µM; in [9], 38 µM.

Turning to `COCc1cc(COc2ccc(S(=O)(=O)CC(C=C3CCC(=O)CC3)N(O)C=O)cc2)cc(C)n1` (stereo not drawn) [Example I-119], the IC50 is 0.32 µM in test [1]; > 100 µM in [2]; 60 µM in test [3]; > 100 µM in test [4]; 58 µM in test [5]; 50 µM in [6]. In addition, the IC50 in test [7] was 60 µM; in test [8], > 100 µM; in [9], > 100 µM.

`COCc1cc(COc2ccc(S(=O)(=O)CC(C=C3CCC4(CC3)OCCO4)N(O)C=O)cc2)cc(C)n1` (stereo not drawn) [Example I-118]: the 50% inhibitory concentration (IC50) in test [1] was 0.23 µM; in [2], > 100 µM; in test [3] it was 31 µM; in test [4], > 100 µM; in test [5] it was 40 µM; in test [6], 20 µM. Moreover, the figures for the IC50 in [7], in [8] and in test [9] were 32 µM, 30 µM and > 100 µM, respectively.

Regarding `CCN1CCC(=CC(CS(=O)(=O)c2ccc(OCc3cc(C)nc4ccccc34)cc2)N(O)C=O)CC1` (stereo not drawn) [Example I-30], the IC50 in [1] was 0.012 µM; in [2] it was > 100 µM; in test [3] it was > 100 µM; in test [4], > 100 µM; in test [5], 8 µM; in test [6] it was 83 µM. Moreover, the IC50 in test [7] is > 100 µM; in test [8], 24 µM; in test [9] it was > 100 µM.

Regarding `Cc1cncc(C(CS(=O)(=O)c2ccc(OCc3cc(C)nc4c(F)cccc34)cc2)N(O)C=O)c1` (stereo not drawn) [Example I-150], the 50% inhibitory concentration (IC50) was 0.0025 µM in [1]; > 100 µM in [2]; 18 µM in [3]; 58 µM in [4]; 2.4 µM in test [5]; 34 µM in [6]. Moreover, the values for the IC50 in test [7], in test [8] and in test [9] were 27 µM, 4 µM and > 100 µM, respectively.

In the case of `Cc1cccc(CCC(CS(=O)(=O)c2ccc(OCc3cc(C)nc4ccccc34)cc2)N(O)C=O)c1` (stereo not drawn) [Example I-39], the half-inhibitory concentration (IC50) was 0.21 µM in [1]; 73 µM in test [2]; 26 µM in test [3]; 43 µM in [4]; 25 µM in [5]; 30 µM in test [6]. For the same compound, the IC50 in [7] was > 100 µM; in test [8], 24 µM; in test [9], 36 µM.

For the compound `COCC(=O)N1CCN(CC(CS(=O)(=O)c2ccc(OCc3cc(C)nc4ccccc34)cc2)N(O)C=O)CC1` (stereo not drawn) [Example I-53], the IC50 in test [1] was 0.01 µM; in test [2], > 100 µM; in test [3] it was 40 µM; in [4] it was > 100 µM; in [5], 0.4 µM; in test [6], 13 µM. Moreover, the IC50 in test [7] was 25 µM; in test [8], 0.6 µM; in test [9], > 100 µM.

Regarding `Cc1cc(COc2ccc(S(=O)(=O)CC(N(O)C=O)C3(C)CCC(=O)CC3)cc2)c2ccccc2n1` (stereo not drawn) [Example I-48], the IC50 was 0.019 µM in test [1]; > 100 µM in [2]; 50 µM in test [3]; > 100 µM in test [4]; 1 µM in [5]; 70 µM in [6]. In addition, the IC50 was 18 µM in [7], 2.8 µM in test [8] and > 100 µM in test [9].

With `Cc1cc(COc2ccc(S(=O)(=O)CC(C3CCCN(C(=O)OC(C)(C)C)C3)N(O)C=O)cc2)c2ccccc2n1` (stereo not drawn) [Example I-72], the IC50 is 0.024 µM in test [1]; 90 µM in [2]; 1.4 µM in [3]; 48 µM in test [4]; 0.28 µM in test [5]; 2 µM in test [6]. Further, the IC50 in [7] turned out to be 10 µM; in [8], 0.7 µM; in test [9], 64 µM.

With `Cc1cc(COc2ccc(S(=O)(=O)CC(C=C3CCN(C(=O)c4ccccc4)CC3)N(O)C=O)cc2)c2ccccc2n1` (stereo not drawn) [Example I-21], the IC50 in test [1] was determined as 0.0022 µM; in test [2], 35 µM; in test [3], 0.6 µM; in test [4], 3.8 µM; in test [5] it was 0.045 µM; in test [6] it was 0.63 µM. The half-maximal inhibitory concentration (IC50) in test [7] was determined as 2.65 µM; in test [8] it was 0.05 µM; in test [9], 9 µM.

With `Cc1cc(COc2ccc(S(=O)(=O)CC(c3cccnc3C)N(O)C=O)cc2)c2ccccc2n1` (stereo not drawn) [Example I-67], the IC50 was 0.003 µM in test [1]; > 100 µM in test [2]; 30 µM in test [3]; 70 µM in test [4]; 1.4 µM in test [5]; 20 µM in test [6]. Further, the IC50 in [7] was 18 µM; in test [8] it was 2.7 µM; in test [9], > 100 µM.

Take `Cc1ccc2nc(C)cc(COc3ccc(S(=O)(=O)CC(C=C4CCOCC4)N(O)C=O)cc3)c2c1` (stereo not drawn) [Example I-74, N-{2-[4-(2.6-dimethylquinolin-4-ylmethoxy)benzenesulfonyl]-1-(tetrahydropyran-4-ylidenemethyl)ethyl}-N-hydroxyformamide]: the IC50 in [1] was 0.005 µM; in [2], 70 µM; in [3], 20 µM; in test [4], 60 µM; in [5] it was 10 µM; in test [6], 41 µM. The IC50 came to 65 µM in test [7], 6 µM in [8] and 50 µM in [9].
